# Results as given in patent US12298315B2, “Systems and methods to identify and treat subjects at risk for obstetrical complications” (Wayne State University, priority 2014, dated 2025).
# Assays:
# [1] = cited from earlier work
# sEng = assay: Maternal plasma sEng concentration by immunoassay; type: in vivo, human; conditions: pravastatin 20 mg once daily since 17+4 weeks, one pregnant subject
# Procedure: (§1) Sample collection and immunoassays. Blood was obtained by venipuncture and collected into tubes containing EDTA. Samples were centrifuged and stored at −70° C. Maternal plasma concentrations of sVEGFR-1, PIGF, and sEng were determined by sensitive and specific immunoassays (R&D Systems). The inter- and intra-assay coefficients of variation (CV) were: 1.4% and 3.9% for sVEGFR-1, 2.3% and 4.6% for sEng, and 6.02% and 4.8%, respectively, for PIGF. The sensitivity of the assays was 16.97 […], 0.08 ng/ml for sEng, and 9.52 […]. The laboratory personnel performing the assays were blinded to the clinical information.
# (§2) Sample Collection and Immunoassays. Blood was obtained by venipuncture and collected into tubes containing EDTA at enrollment and every four weeks until the 24th week of gestation, as well as bi-weekly thereafter until delivery. Samples were centrifuged and stored at −70° C. Maternal plasma concentrations of sVEGFR-1, PIGF, and sEng were determined by immunoassays. The inter- and intra-assay coefficients of variation (CV) of the assays were: 1.4% and 3.9% for sVEGFR-1, 2.3% and 4.6% for sEng, and 6.02% and 4.8%, respectively, for PIGF. The sensitivities of the assays were 16.97 […], 0.08 ng/ml for sEng, and 9.52 […]. Laboratory personnel performing the assays were blinded to the clinical information.
# (§3) The subject received subcutaneous 5000 units of heparin twice a day, 81 mg aspirin tablet daily, and IVIG 1 mg/kg every four weeks from the beginning of the current pregnancy. At 12 weeks and 2 days gestation, maternal PAPP-A concentration was low (1st percentile). […] However, bilateral UtA notching (mean UtA PI 2.23 (95th percentile)) was noted, and the plasma angiogenic/anti-angiogenic factor ratio concentrations were low. At 13, 15, and 17 weeks of gestation, plasma concentrations of sVEGFR-1 and sEng were extremely high (96th-98th percentile; see Table 9 and FIGS. 8A and 8C)), and those of PIGF were within normal limits (59th-62nd percentile; Table 9, FIG. 8B). The PIGF/sVEGFR-1 concentration ratios were low, in the 4th, 6th, and 10th percentiles, respectively (see FIG. 8D).
# (§4) The subject was informed of these findings, of the poor prognosis associated with extremely high plasma sVEGFR-1 concentrations, and of the likelihood that this pregnancy, like their previous one, could be affected by MF. After being counseled extensively about the potential adverse events and issues of safety of pravastatin administration during pregnancy, and informed that there was little evidence from animal experiments that pravastatin could reverse angiogenic/anti-angiogenic factor imbalances, the subject was offered and opted to receive pravastatin 20 milligrams once daily at 17 weeks and 4 days of gestation. At 21 weeks of gestation, the plasma concentrations of sVEGFR-1 decreased to the normal range (56th percentile) while that of PIGF increased to 93rd percentile. Plasma sEng remained high, at the 94th percentile.
# (§5) Sample Collection and Immunoassays. Venipuncture was performed serially at regular prenatal visits and admissions to the hospital for all normal and MPFD affected pregnancies. Blood was collected into tubes containing EDTA. Samples were centrifuged and stored at −70° C. until used for assay. Sensitive and specific immunoassays (R&D systems, Minneapolis, MN) were used to determine maternal plasma concentrations of PIGF, sEng, sVEGFR-1 and -2. All immunoassays utilized the quantitative sandwich enzyme immunoassay technique, and their concentrations in maternal plasma were determined by interpolation from the standard curves. The inter- and intra-assay coefficients of variation (CV) obtained in the laboratory were as follows: PIGF, 6.02 and 4.8%, respectively; s-Eng, 2.3 and 4.6%, respectively; sVEGFR-1, 1.4 and 3.9%, respectively; and sVEGFR-2, 2 and 4%, respectively. […]
# PIGF/sVEGFR-1 = assay: Maternal plasma PIGF/sVEGFR-1 concentration ratio; type: in vivo, human; conditions: pravastatin 20 mg once daily since 17+4 weeks, one pregnant subject
# Procedure: as §1
# Quantile regression was used to calculate median analyte ratio concentrations (PIGF/sVEGFR-1, PIGF/sEng) conditional upon GA among uncomplicated pregnancies (n=886). MoM values were calculated for both analyte ratios for each subject. MoM cutoffs were calculated based on inspection of receiver operating characteristic (ROC) curves calculated for each outcome (stillbirth, late PE, severe late PE, and SGA without PE). Prognostic logistic regression models were constructed for each outcome, including the MoM cutoff and clinical risk factors. Covariables included in adjusted models were selected based on clinical knowledge. Model reduction was performed additionally based on the plausibility of regression coefficients, association with independent variables and the magnitude of change in the main effect parameter estimates. To account for potential model over-fitting, when van Houwelingen and le Cessie's heuristic shrinkage estimator fell below 0.85 (indicator of instability), bootstrap estimated linear shrinkage factors and Firth's penalized maximum likelihood estimation were used to calculate conservative estimates less likely to be affected by over-fitting.
# Statistical Analysis. Proportions and 95% CI or medians and interquartile ranges were calculated for categorical and arithmetic variables. Pearson correlation coefficients were used to characterize bivariate relation among arithmetic variables. Quantile regression models were fitted to estimate expected medians of biochemical analyte concentrations and Doppler velocimetry PI as a function of gestational week at examination for women with uncomplicated term pregnancies. MoM were calculated for each biomarker (biochemical and sonographic) for each subject. […]
# [2] = cited from earlier work; remark: listed apart in the source
# sVEGFR-1 = assay: Maternal plasma sVEGFR-1 concentration by immunoassay; type: in vivo, human; conditions: pravastatin 20 mg once daily since 17+4 weeks, one pregnant subject
# Procedure: as §1, §2, §3, §4, §5
# PIGF = assay: Maternal plasma PIGF concentration by immunoassay; type: in vivo, human; conditions: pravastatin 20 mg once daily since 17+4 weeks, one pregnant subject
# Procedure: as §1, §2, §3, §4, §5
# [3] = dually perfused term human placental lobule
structure (smiles),measurement,setting,value
"CC[C@H](C)C(=O)O[C@H]1C[C@@H](C)C=C2C=C[C@H](C)[C@H](CC[C@@H]3C[C@@H](O)CC(=O)O3)[C@H]21 [lovastatin, Lovastatin]","Adverse pregnancy outcomes, post marketing surveillance",[1]; subjects with an early exposure to these drugs,has not found any adverse pregnancy outcomes
"CC[C@H](C)C(=O)O[C@H]1C[C@H](O)C=C2C=C[C@H](C)[C@H](CC[C@@H](O)C[C@@H](O)CC(=O)O)[C@H]21 [pravastatin, Pravastatin]",Plasma concentration of sEng,sEng; GA 19+5 weeks,13.1 ng/mL
same,"Plasma sEng, percentile for GA",sEng; GA 19+5 weeks,(98) percentile
same,Plasma concentration of sEng,sEng; GA 21+6 weeks,8.7 ng/mL
same,Plasma concentration of sEng,sEng; GA 25+3 weeks,8.8 ng/mL
same,"Plasma sEng, percentile for GA",sEng; GA 25+3 weeks,(94) percentile
same,Plasma concentration of sEng,sEng; GA 27+4 weeks,9.9 ng/mL
same,"Plasma sEng, percentile for GA",sEng; GA 27+4 weeks,(95) percentile
same,Plasma concentration of sEng,sEng; GA 29+4 weeks,12.7 ng/mL
same,"Plasma sEng, percentile for GA",sEng; GA 29+4 weeks,(97) percentile
same,Plasma concentration of sEng,sEng; GA 31+4 weeks,9.6 ng/mL
same,"Plasma sEng, percentile for GA",sEng; GA 31+4 weeks,(85) percentile
same,Plasma concentration of sEng,sEng; GA 33+5 weeks,12.7 ng/mL
same,"Plasma sEng, percentile for GA",sEng; GA 33+5 weeks,(85) percentile
same,PIGF/sVEGFR-1 concentration ratio,PIGF/sVEGFR-1; GA 19+5 weeks,0.07
same,"PIGF/sVEGFR-1 ratio, percentile for GA",PIGF/sVEGFR-1; GA 19+5 weeks,(23) percentile
same,PIGF/sVEGFR-1 concentration ratio,PIGF/sVEGFR-1; GA 21+6 weeks,0.34
same,"PIGF/sVEGFR-1 ratio, percentile for GA",PIGF/sVEGFR-1; GA 21+6 weeks,(90) percentile
same,PIGF/sVEGFR-1 concentration ratio,PIGF/sVEGFR-1; GA 25+3 weeks,0.27
same,"PIGF/sVEGFR-1 ratio, percentile for GA",PIGF/sVEGFR-1; GA 25+3 weeks,(51) percentile
same,PIGF/sVEGFR-1 concentration ratio,PIGF/sVEGFR-1; GA 27+4 weeks,0.22
same,"PIGF/sVEGFR-1 ratio, percentile for GA",PIGF/sVEGFR-1; GA 27+4 weeks,(34) percentile
same,PIGF/sVEGFR-1 concentration ratio,PIGF/sVEGFR-1; GA 29+4 weeks,0.18
same,"PIGF/sVEGFR-1 ratio, percentile for GA",PIGF/sVEGFR-1; GA 29+4 weeks,(25) percentile
same,PIGF/sVEGFR-1 concentration ratio,PIGF/sVEGFR-1; GA 31+4 weeks,0.08
same,"PIGF/sVEGFR-1 ratio, percentile for GA",PIGF/sVEGFR-1; GA 31+4 weeks,(10) percentile
same,PIGF/sVEGFR-1 concentration ratio,PIGF/sVEGFR-1; GA 33+5 weeks,0.04
same,"PIGF/sVEGFR-1 ratio, percentile for GA",PIGF/sVEGFR-1; GA 33+5 weeks,(6) percentile
same,Pravastatin remained in the maternal circuit,[2]; [3],68%
same,Pravastatin retained by the placental tissue,[2]; [3],14%
same,Pravastatin transferred to the fetal circuit,[2]; [3],18%
same,Direction of placental transfer,[2]; fetal to maternal versus maternal to fetal compartment,higher transfer of pravastatin from the fetal to the maternal compartment than the reverse
same,Plasma concentration of sVEGFR-1,sVEGFR-1; GA 19+5 weeks,4148 pg/mL
same,Plasma concentration of sVEGFR-1,sVEGFR-1; GA 21+6 weeks,1889 pg/mL
same,Plasma concentration of sVEGFR-1,sVEGFR-1; GA 25+3 weeks,2854 pg/mL
same,Plasma concentration of sVEGFR-1,sVEGFR-1; GA 27+4 weeks,3881 pg/mL
same,"Plasma sVEGFR-1, percentile for GA",sVEGFR-1; GA 27+4 weeks,(90) percentile
same,Plasma concentration of sVEGFR-1,sVEGFR-1; GA 29+4 weeks,4684 pg/mL
same,"Plasma sVEGFR-1, percentile for GA",sVEGFR-1; GA 29+4 weeks,(93) percentile
same,Plasma concentration of sVEGFR-1,sVEGFR-1; GA 31+4 weeks,6370 pg/mL
same,"Plasma sVEGFR-1, percentile for GA",sVEGFR-1; GA 31+4 weeks,(97) percentile
same,Plasma concentration of sVEGFR-1,sVEGFR-1; GA 33+5 weeks,11202 pg/mL
same,Plasma concentration of PIGF,PIGF; GA 19+5 weeks,306 pg/mL
same,Plasma concentration of PIGF,PIGF; GA 21+6 weeks,644 pg/mL
same,Plasma concentration of PIGF,PIGF; GA 25+3 weeks,768 pg/mL
same,"Plasma PIGF, percentile for GA",PIGF; GA 27+4 weeks,(74) percentile
same,Plasma concentration of PIGF,PIGF; GA 27+4 weeks,869 pg/mL
same,"Plasma PIGF, percentile for GA",PIGF; GA 29+4 weeks,(65) percentile
same,Plasma concentration of PIGF,PIGF; GA 29+4 weeks,821 pg/mL
same,"Plasma PIGF, percentile for GA",PIGF; GA 31+4 weeks,(44) percentile
same,Plasma concentration of PIGF,PIGF; GA 31+4 weeks,536 pg/mL
same,Plasma concentration of PIGF,PIGF; GA 33+5 weeks,528 pg/mL
same,Abnormal pregnancy outcomes following exposure,"[1]; humans, exposure during pregnancy",abnormal pregnancy outcomes were not reported
